Data set [1] can be described thus: Suspension crystallization: relative thermodynamic stability of Forms I and II. It is filed as physicochemical. Conditions: mixture of Forms I and II suspended in toluene, stirred at least three days, solid identified by PXRD. The protocol:
Methods. Suspension crystallization. The relative stability relationship between Forms I and II at a specific temperature was bracketed by suspending a mixture of the two polymorphs in toluene in a closed glass vial that was equilibrated at the temperature of interest. Excess solid of one polymorph was first added to saturate toluene in a glass vial at the chosen temperature. The other polymorph was added at least half an hour later. The suspension was stirred continuously for at least three days. A portion of the suspension was withdrawn and immediately filtered. The filtered solid was analyzed using PXRD to identify the equilibrium solid at that temperature. […] By repeating the experiment at different temperatures, the Tt was bracketed.
Suspension Crystallization. […] The Tt must be approximately 70 to about 73° C.

Data set [2] can be described thus: Relative stability of crystal forms at ambient temperature and pressure. It is filed as physicochemical. From the text:
has been described in U.S. Pat. Nos. 5,466,823 and 5,521,207. The description describes a synthesis of the compound, but is silent with respect to the crystalline form which is obtained. […] The forms can be distinguished by their PXRD (powder X-ray diffraction) patterns.

Each structure is given as a SMILES string.

Take `NS(=O)(=O)c1ccc(-n2nc(C(F)(F)F)cc2-c2ccc(F)cc2)cc1` [Form I, 4-[5-(4-fluorophenyl)-3-(trifluoromethyl)-1H-pyrazol-1-yl]-benzenesulfonamide]: in data set [1], the “temperature at which the form is thermodynamically more stable (equilibrium solid phase)” value was at most 71.0 °C. In the case of `NS(=O)(=O)c1ccc(-n2nc(C(F)(F)F)cc2-c2ccc(F)cc2)cc1` [Form II, 4-[5-(4-fluorophenyl)-3-(trifluoromethyl)-1H-pyrazol-1-yl]-benzenesulfonamide], the “stability of crystal form relative to the other form” value in data set [2] is given as “unstable with respect to another form, Form I”. The “temperature at which the form is thermodynamically more stable (equilibrium solid phase)” value in data set [1] is at least 71.5 °C.

The values are drawn from patent US20100093820A1, “CRYSTALLINE PYRAZOLES” (PHARMACIA & UPJOHN COMPANY LLC, priority 2004, published 2010).
